Measurements: US20260042764A1, “COMPOSITIONS AND METHODS FOR INHIBITION OF KRAS” (TheRas, Inc., priority 2022, published 2026)

Experiments:
GP2d cells (KRAS G12D) = experiment: Cell-based pERK HTRF assay in GP2d cell (Biological Example 2); conditions: GP2d, GP2d (KRAS G12D) cells
How it was run: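 GP2d (KRAS G12D) cells were plated in DMEM/10% FBS and treated the next day for 60 min with compounds. Dosing used 9-point half-log series starting at 1 μM or 100 nM in 0.25% DMSO. Lysates were read by HTRF pERK (d2/Eu cryptate antibodies) after 4–24 h at room temperature, with excitation at 320 nm and emission at 615 nm.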

[1] = molecular target: T1, Avi-KRAS G12D (2-169) GTP/RAF1 RBD-3xFLAG (51-131) (Homo sapiens, UniProt P01116, G12D); experiment: Raf1-KRAS G12D-GTP disruption HTRF assay (Biological Example 3); format: binding; conditions: KRAS G12D, GTP-loaded
T1 construct: Avi-KRAS G12D (2-169)
T1 sequence (P01116 2-169 isoform P01116-2 G12D): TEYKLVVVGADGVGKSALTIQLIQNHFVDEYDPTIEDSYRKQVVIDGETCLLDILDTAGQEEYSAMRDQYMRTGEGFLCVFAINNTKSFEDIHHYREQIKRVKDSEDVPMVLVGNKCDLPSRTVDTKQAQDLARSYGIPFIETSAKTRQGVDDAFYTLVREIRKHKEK
How it was run: (§1)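 Each KRAS-GTP/RAF1 RBD complex at 50 nM, with 75 nM 3xFLAG-RAF1 RBD (51-131)-Avi, in 50 mM Tris pH 7.5, 100 mM NaCl, 5 mM MgCl2, 0.1% BSA, 0.01% Tween 20, 10% DMSO. Compounds titrated from 30 μM, 10-point 3x series; 1 h at room temperature with shaking. HTRF read, activity as percent of DMSO.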

[2] = molecular target: T2, Avi-KRAS G12C (2-169) GTP/RAF1 RBD-3xFLAG (51-131) (Homo sapiens, UniProt P01116, G12C); experiment: Raf1-KRAS G12C-GTP disruption HTRF assay (Biological Example 3); format: binding; conditions: KRAS G12C, GTP-loaded
T2 construct: Avi-KRAS G12C (2-169)
T2 sequence (P01116 2-169 isoform P01116-2 G12C): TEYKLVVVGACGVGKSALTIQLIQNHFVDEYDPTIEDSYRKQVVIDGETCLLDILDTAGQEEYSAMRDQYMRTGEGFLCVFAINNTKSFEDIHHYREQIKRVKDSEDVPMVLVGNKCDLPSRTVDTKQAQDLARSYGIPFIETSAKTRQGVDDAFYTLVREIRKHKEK
How it was run: as §1

[3] = molecular target: T3, Avi-KRAS G12V (2-169) GTP/RAF1 RBD-3xFLAG (51-131) (Homo sapiens, UniProt P01116, G12V); experiment: Raf1-KRAS G12V-GTP disruption HTRF assay (Biological Example 3); format: binding; conditions: KRAS G12V, GTP-loaded
T3 construct: Avi-KRAS G12V (2-169)
T3 sequence (P01116 2-169 isoform P01116-2 G12V): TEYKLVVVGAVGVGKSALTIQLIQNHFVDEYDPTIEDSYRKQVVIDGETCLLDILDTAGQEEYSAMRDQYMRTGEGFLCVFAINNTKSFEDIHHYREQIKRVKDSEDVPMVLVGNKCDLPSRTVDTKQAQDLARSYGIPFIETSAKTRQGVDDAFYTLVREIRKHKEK
How it was run: as §1

[4] = molecular target: T4, Avi-KRAS WT (2-169) GTP/RAF1 RBD-3xFLAG (51-131) (Homo sapiens, UniProt P01116); experiment: Raf1-KRAS WT-GTP disruption HTRF assay (Biological Example 3); format: binding; conditions: KRAS WT, GTP-loaded
T4 construct: Avi-KRAS WT (2-169)
T4 sequence (P01116 2-169 isoform P01116-2): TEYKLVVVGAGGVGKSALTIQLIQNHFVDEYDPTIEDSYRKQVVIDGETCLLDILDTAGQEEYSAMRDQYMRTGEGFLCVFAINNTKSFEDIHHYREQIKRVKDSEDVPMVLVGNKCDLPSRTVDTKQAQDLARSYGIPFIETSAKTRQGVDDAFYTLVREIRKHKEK
How it was run: as §1

SW620 cells (KRAS G12V) = experiment: Cell-based pERK HTRF assay in SW620 cell (Biological Example 4); conditions: Homo sapiens, SW-620, SW620 (KRAS G12V) cells
How it was run: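 Read-out: HTRF pERK signal (excitation 320 nm, emission 615 nm) from lysates of SW620 cells after 4 h compound exposure. Dose range was 9 points, half-log steps from 1 μM, in 0.25% DMSO; antibody incubation ran 4–24 h at room temperature.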

[5] = molecular target: T5, Avi-KRAS G12D (1-169) GppNHp/RAF1 RBD-3xFLAG (52-151) (Homo sapiens, UniProt P01116, G12D); experiment: Raf1-KRAS G12D-GppNHP disruption HTRF assay (Biological Example 1); format: binding; conditions: KRAS G12D, GppNHp-loaded; Table 11
T5 construct: Avi-KRAS G12D (1-169)
T5 sequence (P01116 1-169 isoform P01116-2 G12D): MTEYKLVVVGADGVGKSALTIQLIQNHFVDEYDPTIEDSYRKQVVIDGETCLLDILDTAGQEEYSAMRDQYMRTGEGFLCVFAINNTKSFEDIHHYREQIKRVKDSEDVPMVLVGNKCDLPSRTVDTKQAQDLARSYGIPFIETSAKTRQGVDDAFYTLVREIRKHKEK
How it was run: (§2)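 Percent activity versus DMSO (100%) was derived from HTRF signal after KRAS–RAF1 RBD protein mix was incubated 1 h at room temperature with shaking and detection reagents were added for a further 1 h.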

[6] = molecular target: T6, Avi-KRAS G12R (1-169) GppNHp/RAF1 RBD-3xFLAG (52-151) (Homo sapiens, UniProt P01116, G12R); experiment: Raf1-KRAS G12R-GppNHP disruption HTRF assay (Biological Example 1); format: binding; conditions: KRAS G12R, GppNHp-loaded; Table 11
T6 construct: Avi-KRAS G12R (1-169)
T6 sequence (P01116 1-169 isoform P01116-2 G12R): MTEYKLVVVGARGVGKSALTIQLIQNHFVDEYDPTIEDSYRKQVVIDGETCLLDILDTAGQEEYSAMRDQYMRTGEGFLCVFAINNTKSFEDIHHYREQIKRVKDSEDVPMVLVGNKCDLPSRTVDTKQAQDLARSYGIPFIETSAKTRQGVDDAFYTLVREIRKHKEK
How it was run: as §2

[7] = molecular target: T7, Avi-KRAS G12V (1-169) GppNHp/RAF1 RBD-3xFLAG (52-151) (Homo sapiens, UniProt P01116, G12V); experiment: Raf1-KRAS G12V-GppNHP disruption HTRF assay (Biological Example 1); format: binding; conditions: KRAS G12V, GppNHp-loaded; Table 11
T7 construct: Avi-KRAS G12V (1-169)
T7 sequence (P01116 1-169 isoform P01116-2 G12V): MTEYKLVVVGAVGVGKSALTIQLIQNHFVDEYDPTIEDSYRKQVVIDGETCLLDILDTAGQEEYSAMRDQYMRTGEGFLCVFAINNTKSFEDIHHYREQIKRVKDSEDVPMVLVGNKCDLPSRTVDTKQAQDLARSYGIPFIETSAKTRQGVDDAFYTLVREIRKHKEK
How it was run: as §2

[8] = molecular target: T8, Avi-KRAS WT (1-169) GppNHp/RAF1 RBD-3xFLAG (52-151) (Homo sapiens, UniProt P01116); experiment: Raf1-KRAS WT-GppNHP disruption HTRF assay (Biological Example 1); format: binding; conditions: KRAS WT, GppNHp-loaded; Table 11
T8 construct: Avi-KRAS WT (1-169)
T8 sequence (P01116 1-169 isoform P01116-2): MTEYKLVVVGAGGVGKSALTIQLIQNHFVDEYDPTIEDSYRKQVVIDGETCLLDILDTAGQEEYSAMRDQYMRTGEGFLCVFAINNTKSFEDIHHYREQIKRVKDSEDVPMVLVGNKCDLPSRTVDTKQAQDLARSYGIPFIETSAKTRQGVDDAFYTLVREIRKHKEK
How it was run: as §2

SW1900 cells (KRAS G12D) = experiment: 3D Cell viability assay in SW1900 cells (Biological Example 6); format: cell-based; conditions: Homo sapiens; SW1990 (text: SW1900, KRAS G12D) spheroids, 72 hours
Protocol: (§3) Biological Example 6: 3D Cell viability assay in AsPC-1, SW1900, HPAC, Capan-2, RKN, H358, HCT116, KP-2, H1573, A549, MKN1, and HT1080 cells
(§4) The inhibition of cellular viability as a result of test compound treatment in a spheroid assay was measured using the CellTiter-Glow 3D Cell Viability Assay (Promega).
(§5) On Day 1, 1000 cells per well were seeded in 150 μL of complete growth media supplemented with 10% fetal bovine serum (FBS) and incubated at 37° C., in the presence of 5% CO2 in 96-well ultra-low attachment microplates (Corning) for 48 hours undisturbed to allow spheroids to form.
(§6) Following spheroid formation, cells were treated with compounds diluted in DMSO at 0.25% final DMSO concentration. Compounds were dosed in a 9-point concentration curve with three-fold dilution between concentrations. Cells were incubated in the presence of compound for 72 hours at 37° C., in the presence of 5% CO2.
(§7) Following this incubation period, the kit-provided CTG reagent was allowed to equilibrate for 30 minutes at room temperature, 150 μL of equilibrated CTG reagent was added to each well, and the plate was sealed before shaking at 250 rpm for 10 minutes at room temperature to lyse the cells, 150 μL of lysate per well was transferred to a 96-well plate and luminescence was read on a CLARIOstar plate reader.
(§8) Data was imported into the Prism software package (Graphpad) and EC50 values were calculated using the log (inhibitor) vs, response—variable slope (Four parameters) model.

HPAC cells (KRAS G12D) = experiment: 3D Cell viability assay in HPAC cells (Biological Example 6); format: cell-based; conditions: Homo sapiens, HPAC, 72 h, HPAC (KRAS G12D) spheroids
Protocol: as §3, §4, §5, §6, §7, §8

H358 cells (KRAS G12C) = experiment: 3D Cell viability assay in H358 cells (Biological Example 6); format: cell-based; conditions: Homo sapiens, NCI-H358; H358 (KRAS G12C) spheroids, 72 hours
Protocol: as §3, §4, §5, §6, §7, §8

HCT116 cells (KRAS G13D) = experiment: 3D Cell viability assay in HCT116 cells (Biological Example 6); format: cell-based; conditions: Homo sapiens, HCT-116; HCT116 (KRAS G13D) spheroids, 72 hours
Protocol: as §3, §4, §5, §6, §7, §8

H1573 cells (KRAS G12A) = experiment: 3D Cell viability assay in H1573 cells (Biological Example 6); format: cell-based; conditions: Homo sapiens, NCI-H1573; H1573 (KRAS G12A) spheroids, 72 hours
Protocol: as §3, §4, §5, §6, §7, §8

A549 cells (KRAS G12S) = experiment: 3D Cell viability assay in A549 cells (Biological Example 6); format: cell-based; conditions: Homo sapiens; A549 (KRAS G12S) spheroids, 72 hours
Protocol: as §3, §4, §5, §6, §7, §8

HT1080 cells (NRAS) = experiment: 3D Cell viability assay in HT1080 cells (Biological Example 6); format: cell-based; conditions: Homo sapiens, HT-1080; HT1080 (NRAS) spheroids, 72 hours
Protocol: as §3, §4, §5, §6, §7, §8

Compound | IC50 (GP2d cells (KRAS G12D)) | IC50 [1] | IC50 [2] | IC50 [3] | IC50 [4] | IC50 (SW620 cells (KRAS G12V)) | IC50 [5] | IC50 [6] | IC50 [7] | IC50 [8] | IC50 (GP2d cells (KRAS G12D); pERK HTRF) | IC50 (SW1900 cells (KRAS G12D)) | IC50 (HPAC cells (KRAS G12D)) | IC50 (H358 cells (KRAS G12C)) | IC50 (HCT116 cells (KRAS G13D)) | IC50 (H1573 cells (KRAS G12A)) | IC50 (A549 cells (KRAS G12S)) | IC50 (HT1080 cells (NRAS))
CN(Cc1ccno1)c1nc(OC[C@@]23CCCN2C[C@H](F)C3)nc2c(F)c(-c3ccc(F)c4sc(N)c(C#N)c34)c(C(F)(F)F)cc12 (atropisomer, axis not shown) [Compound 917] | < 100 nM | 100 to 1000 nM | 1000 to 10000 nM | 100 to 1000 nM | 1000 to 10000 nM | < 100 nM | – | – | – | – | – | – | – | – | – | – | – | –
CCN(c1nc(OC[C@@]23CCCN2C[C@H](F)C3)nc2c(F)c(-c3ccc(F)c4sc(N)c(C#N)c34)c(C(F)(F)F)cc12)[C@H]1C[C@H]2CN(CC(F)(F)F)C(=O)N2C1 (atropisomer, axis not shown) [Compound 951] | < 100 nM | 100 to 1000 nM | 100 to 1000 nM | 100 to 1000 nM | 100 to 1000 nM | < 100 nM | – | – | – | – | – | – | – | – | – | – | – | –
C[C@H](c1cccnc1)N(C)c1nc(OC[C@@]23CCCN2C[C@H](F)C3)nc2c(F)c(-c3ccc(F)c4sc(N)c(C#N)c34)c(C(F)(F)F)cc12 (atropisomer, axis not shown; (aS)) [Compound 904, 2-amino-7-fluoro-4-((S)-8-fluoro-2-(((2R,7aS)-2-fluorotetrahydro-1H-pyrrolizin-7a(5H)-yl)methoxy)-4-(methyl((R)-1-(pyridin-3-yl)ethyl)amino)-6-(trifluoromethyl)quinazolin-7-yl)benzo[b]thiophene-3-carbonitrile] | < 100 nM | 1000 to 10000 nM | 1000 to 10000 nM | 1000 to 10000 nM | 1000 to 10000 nM | < 100 nM | – | – | – | – | – | – | – | – | – | – | – | –
CN(C)c1nc(OC[C@@]23CCCN2C[C@H](F)C3)nc2c(F)c(-c3ccc(F)c4sc(N)c(C#N)c34)c(C(F)(F)F)cc12 [Compound 153] | – | – | – | – | – | – | < 100 nM | 100 to 1000 nM | 100 to 1000 nM | 100 to 1000 nM | < 100 nM | 100 to 1000 nM | 100 to 1000 nM | ≤ 100 nM | 100 to 1000 nM | 100 to 1000 nM | ≤ 100 nM | > 1000 nM
CCN(c1nc(OC[C@@]23CCCN2C[C@H](F)C3)nc2c(F)c(-c3ccc(F)c4sc(N)c(C#N)c34)c(C(F)(F)F)cc12)[C@H]1CCN(C(=O)c2ccc(C#N)s2)C1 (atropisomer, axis not shown) [Compound 952] | < 100 nM | 100 to 1000 nM | 100 to 1000 nM | 100 to 1000 nM | 1000 to 10000 nM | < 100 nM | – | – | – | – | – | – | – | – | – | – | – | –
CCN(c1nc(OC[C@@]23CCCN2C[C@H](F)C3)nc2c(F)c(-c3ccc(F)c4sc(N)c(C#N)c34)c(C(F)(F)F)cc12)[C@H]1C[C@H]2C[C@@H](C)C(=O)N2C1 (atropisomer, axis not shown) [Compound 866] | < 100 nM | ≤ 100 nM | ≤ 100 nM | ≤ 100 nM | ≤ 100 nM | < 100 nM | – | – | – | – | – | – | – | – | – | – | – | –
CCN(c1nc(OC[C@@]23CCCN2C[C@H](F)C3)nc2c(F)c(-c3ccc(F)c4sc(N)c(C#N)c34)c(C(F)(F)F)cc12)[C@H]1CC[C@@](C)(C(=O)N(C)C)C1 (atropisomer, axis not shown) [Compound 873] | < 100 nM | 1000 to 10000 nM | 1000 to 10000 nM | 1000 to 10000 nM | 100 to 1000 nM | < 100 nM | – | – | – | – | – | – | – | – | – | – | – | –
CN(Cc1ccncc1)c1nc(OC[C@@]23CCCN2C[C@H](F)C3)nc2c(F)c(-c3ccc(F)c4sc(N)c(C#N)c34)c(C(F)(F)F)cc12 (atropisomer, axis not shown) [Compound 867] | < 100 nM | 1000 to 10000 nM | 1000 to 10000 nM | 1000 to 10000 nM | 1000 to 10000 nM | < 100 nM | – | – | – | – | – | – | – | – | – | – | – | –
